According to patent US20260015416A1, “TREATMENT OF DRUG-RESISTANT HEPATOCELLULAR CARCINOMA” (Alentis Therapeutics AG, priority 2022, published 2026):

System: HCC patient-derived spheroids (primary HCC tumorspheres)
Experiment: HCC patient-derived spheroid viability (CellTiterGlo 3D, ATP quantification)
Type: cell-based, human
Details: HCC spheroids from 15 different HCC patients; 6 days; H3L3 10 μg/mL, sorafenib 10 μM, nivolumab 10 μg/mL; vs control mAb; FIG. 1C
Text: Fragments of tumor tissue (5×5 mm to 8×8 mm size) were excised from tumor mass of HCC patients (n=15 different donors, Table 2) and then processed with enzymatic and mechanical dissociation to generate clusters of tumor cells similarly as described recently (Crouchet E, et al., Nat Commun 2021; 12:5525; Jühling F, et al., Gut 2021; 70:157-69). Aggregates of cells were assembled into spheroids in 96-well Black/Clear Bottom Low Flange Ultra-Low Attachment Microplates (Corning) and cultured in MammoCult basal medium (STEMCELL Technologies), supplemented with human proliferation supplement (3.4%), hydrocortisone (0.056%), heparin (0.011%) and 50% patients' own serum.
Tumorspheres were treated for 6 days with 10 μg/mL isotype control mAb, with 10 μg/mL anti-Claudin-1 mAb “H3L3” (Table 1), with sorafenib (10 μM, Selleckchem) or with Nivolumab (10 μg/mL, Selleckchem) with at least duplicates per condition. Tumorsphere viability was assessed at day 6 using CellTiterGlo 3D (Promega) according to the manufacturer's instructions.

Molecule	response rate (defined as a mean decrease in cell viability of >15%) [%]
nivolumab [reference compound]	15
CNC(=O)c1cc(Oc2ccc(NC(=O)Nc3ccc(Cl)c(C(F)(F)F)c3)cc2)ccn1 [sorafenib, 4-[4-[[4-chloro-3-(trifluoromethyl)phenyl]carbamoylamino]phenoxy]-N -methyl-pyridine-2-carboxamide, reference compound]	33
